Reference: US11242537B2, “Method for improving sensitivity of plant to gibberellin inhibitor and use thereof” (CHINA AGRICULTURAL UNIVERSITY, priority 2017, dated 2022)

How the values were obtained:
ZmCPS::ga1-5 = assay: Effect of DPC on plant height (step 4.1), ZmCPS::ga1-5; format: in vivo, Arabidopsis thaliana; settings: for Plant height: 12 days; for Plant height reduction rate: relative to 0 mg/L
Protocol: (§1) In the following examples, the growth conditions of Arabidopsis thaliana are: culturing in a growth chamber with a photoperiod of 16 h light/8 h dark, a light intensity of 60 μmol/m^2/s, a humidity of 60%-70%, and a temperature of 22° C.
(§2) The experiment was repeated three times, and the specific steps of each repeated experiment were as follows:
(§3) Thirty homozygous line plants of the HRP::ga1-1 of step 2 were randomly selected and randomly divided into three groups, ten plants in each group. On the 33rd day of sowing (the day of sowing was recorded as the first day of sowing), the plants of these three groups were treated as follows, respectively one group was sprayed with water (i.e., 0 mg/L DPC solution) and cultured for 12 days to obtain untreated HRP::ga1-1; one group was sprayed with 30 mg/L DPC solution and cultured for 12 days to obtain 30 mg/L DPC-treated HRP::ga1-1; the last group was sprayed with 500 mg/L aqueous DPC solution and cultured for 12 days to obtain 500 mg/L DPC-treated HRP::ga1-1.
(§4) According to the above method, the homozygous line plants of the HRP::ga1-1 were replaced with the homozygous line plants of the HRP::ga1-5, the homozygous line plants of the ZmCPS::ga1-1, the homozygous line plants of the ZmCPS::ga1-5, the homozygous line plants of the PsSuper1300::ga1-1 and the homozygous line plants of the PsSuper1300::ga1-5 respectively, the other steps were unchanged, and untreated HRP::ga1-5, 30 mg/L DPC-treated HRP::ga1-5, 500 mg/L DPC-treated HRP::ga1-5, untreated ZmCPS::ga1-1, 30 mg/L DPC-treated ZmCPS::ga1-1, 500 mg/L DPC-treated ZmCPS::ga1-1, untreated ZmCPS::ga1-5, 30 mg/L DPC-treated ZmCPS::ga1-5, 500 mg/L DPC-treated ZmCPS::ga1-5, untreated PsSuper1300::ga1-1, 30 mg/L DPC-treated PsSuper1300::ga1-1, 500 mg/L DPC-treated PsSuper1300::ga1-1, untreated PsSuper1300::ga1-5, 30 mg/L DPC-treated PsSuper1300::ga1-5 and 500 mg/L DPC-treated PsSuper1300::ga1-5 were obtained, respectively.
(§5) The plant heights of the above Arabidopsis thaliana before the treatment (FIG. 1) and after different treatments (FIG. 2 and Table 2) were measured.

[1] = tested on: transgenic zmcps-ko line with the HRP, line No. 443; assay: Sensitivity of transgenic zmcps-ko line with the HRP to DPC, line No. 443; format: in vivo, maize
Source text: (§6) The GV3101-pSuper1300-HRP of Example 1 was transformed into the ZmCPSKO maize embryos of step 1.1 by using the Agrobacterium to infect the maize immature embryos, and positive transgenic maize with the HRP was obtained by screening, and the transgenic maize with the HRP contained the target gene HRP. The GV3101-pSuper1300-ZmCPS and GV3101-pSuper1300 were used as controls, and the ZmCPS control maize and empty vector control maize were obtained, respectively.
(§7) The WT and transgenic plants were sprayed with DPC during jointing stage to test their DPC sensitivity: the whole plant was sprayed with 500 ppm […] DPC when the maize was grown to 7 leaf expansion phase and 12 leaf expansion phase. Plant height and ear height were measured 2 weeks after treatment and after tasseling.

[2] = tested on: transgenic zmcps-ko line with the HRP, line No. 623; assay: Sensitivity of transgenic zmcps-ko line with the HRP to DPC, line No. 623; format: in vivo, maize; settings: 500 ppm (5 mM) DPC spray
Source text: as §6, §7

[3] = tested on: transgenic zmcps-ko line with the HRP, line No. 614; assay: Sensitivity of transgenic zmcps-ko line with the HRP to DPC, line No. 614; format: in vivo, maize; settings: 500 ppm (5 mM) DPC spray
Source text: as §6, §7

pSuper1300::ga1-5 = assay: Effect of DPC on plant height (step 4.1), empty vector pSuper1300::ga1-5; format: in vivo, Arabidopsis thaliana; settings: for Plant height: 12 days; for Plant height reduction rate: relative to 0 mg/L
Protocol: as §1, §2, §3, §4, §5

HRP::ga1-5 = assay: Effects of different concentrations of DPC on plant height (step 4.2), HRP::ga1-5; format: in vivo, Arabidopsis thaliana
Protocol: as §1, §2
Seventy homozygous line plants of the HRP::ga1-1 of step 2 were randomly selected and randomly divided into seven groups, ten plants in each group. On the 33rd day of sowing (the day of sowing was recorded as the first day of sowing), the plants of these seven groups were treated as follows, respectively: one group was sprayed with water (i.e., 0 mg/L aqueous DPC solution) and cultured for 12 days to obtain untreated HRP::ga1-1; one group was sprayed with 30 mg/L aqueous DPC solution and cultured for 12 days to obtain 30 mg/L DPC-treated HRP::ga1-1; one group was sprayed with 50 mg/L aqueous DPC solution and cultured for 12 days to obtain 50 mg/L DPC-treated HRP::ga1-1; one group was sprayed with 100 mg/L aqueous DPC solution and cultured for 12 days to obtain 100 mg/L DPC-treated HRP::ga1-1; one group was sprayed with 300 mg/L aqueous DPC solution and cultured for 12 days to obtain 300 mg/L DPC-treated HRP::ga1-1; one group was sprayed with 500 mg/L aqueous DPC solution and cultured for 12 days to obtain 500 mg/L DPC-treated HRP::ga1-1; one group was sprayed with 1000 mg/L aqueous DPC solution and cultured for 12 days to obtain 1000 mg/L DPC-treated HRP::ga1-1.
According to the above method, the homozygous line plant of the HRP::ga1-1 was replaced with the pure homozygous line plant of the HRP::ga1-5, and the other steps were unchanged to obtain untreated HRP::ga1-5, 30 mg/L DPC-treated HRP::ga1-5, 50 mg/L DPC-treated HRP::ga1-5, 100 mg/L DPC-treated HRP::ga1-5, 300 mg/L DPC-treated HRP::ga1-5, 500 mg/L DPC-treated HRP::ga1-5 and 1000 mg/L DPC-treated HRP::ga1-5, respectively.
The plant heights of the differently treated Arabidopsis thaliana were measured respectively (FIG. 3), and the average plant heights are shown in Table 3.

[4] = line No. 443, 500 ppm (5 mM) DPC spray

C[N+]1(C)CCCCC1.[Cl-] [DPC, 1,1-dimethylpiperidinium chloride]
Plant height (ZmCPS::ga1-5; 30 mg/L DPC spray): 16.79 ± 0.13 cm
Plant height reduction rate (ZmCPS::ga1-5; 30 mg/L DPC): 0.06%
Plant height (ZmCPS::ga1-5; 500 mg/L DPC spray): 16.66 ± 0.31 cm
Plant height reduction rate (ZmCPS::ga1-5; 500 mg/L DPC): 0.83%
Effect of DPC on plant height (in words) (ZmCPS::ga1-5; 30 and 500 mg/L DPC): no effect
Sensitivity of the plant to DPC (in words) ([1]; complementary plant, line No. 443 (FIG. 5), 500 ppm (5 mM) DPC spray): sensitive
Ear height [1, 4]: 80.0
Plant height at tasseling stage [1, 4]: 187.9
Plant height at 2 weeks after treatment ([1]; line No. 443, whole plant sprayed with 500 ppm (5 mM) DPC at 7 and 12 leaf expansion phase): 128.9
Ear height [2]: 75.2
Plant height at 2 weeks after treatment [2]: 133.5
Plant height at tasseling stage [2]: 182.8
Ear height [3]: 80.5
Plant height at 2 weeks after treatment [3]: 133.2
Plant height at tasseling stage [3]: 197.9
Plant height (pSuper1300::ga1-5; 30 mg/L DPC spray): 6.54 ± 0.20 cm
Plant height reduction rate (pSuper1300::ga1-5; 30 mg/L DPC): 5.90%
Plant height (pSuper1300::ga1-5; 500 mg/L DPC spray): 6.21 ± 0.14 cm
Plant height reduction rate (pSuper1300::ga1-5; 500 mg/L DPC): 10.65%
Plant height (average) (HRP::ga1-5; 30 mg/L DPC spray, 12 days (step 4.2)): 11.93 cm
Plant height (average) (HRP::ga1-5; 50 mg/L DPC spray, 12 days): 9.843 cm
Plant height (average) (HRP::ga1-5; 100 mg/L DPC spray, 12 days): 10.14 cm
Plant height (average) (HRP::ga1-5; 300 mg/L DPC spray, 12 days): 9.957 cm
Plant height (average) (HRP::ga1-5; 500 mg/L DPC spray, 12 days (step 4.2)): 9.857 cm
Plant height (average) (HRP::ga1-5; 1000 mg/L DPC spray, 12 days): 7.357 cm
